Reference: US20250034127A1, “AUTOPHAGY INDUCING COMPOUNDS AND USES THEREOF, IN PARTICULAR FOR DISEASES OF THE CNS” (Samsara Therapeutics Inc., priority 2021, published 2025)

What was measured:
[1] = test system: SH-SY5Y cells; experiment: Acidic vesicle formation in SH-SY5Y cells (LysoTracker Deep Red); assay type: cell-based, human; conditions: 24 hours, relative to DMSO-treated control
Experimental: This is evidence for significant stimulation of autophagy by this compound under these conditions. SH-SY5Y cells are a human-derived neuroblastoma cell line widely used in in vitro models of neurological disorders (Ross R A, Spengler B A, Biedler J L. Coordinate morphological and biochemical interconversion of human neuroblastoma cells. J Natl Cancer Inst. 1983 October; 71 (4): 741-7. PMID: 6137586).
A brief description of the procedure employed is outlined here: • Day 1: Cells were seeded at 15K cells/well in the middle 60 wells of 6×96 well Cellvis imaging plates • Day 2: Media was replaced with 90 μl of DMEM/F12 (+10% FBS/1% P/S) containing NucBlue Live and the cells were treated with 10 μl of compound (10× concentrated) in triplicate for 24 hours. • Day3: Treatment was removed and cells were incubated for 30 minutes with LysoTracker™ Deep Red dye. Cells were washed twice with media and immediately imaged on EVOS M7000 at ×20 (6 images per well, 30 minutes imaging time/plate). Images were analysed using Celleste Image analysis software.

[2] = test system: primary culture of dopaminergic Tyrosine hydroxylase (TH)-positive neurons; experiment: Cellular model of Parkinson's disease (MPTP/MPP+ injury); assay type: cell-based, rat
Text: This model (run by Neuro-Sys SAS, France) is based on a primary culture of dopaminergic Tyrosine hydroxylase (TH)-positive neurons injured with the dopaminergic neurons-specific toxin (DA-toxin) 1-methyl-4-phenyl-1,2,3,6 tetrahydropyridine (MPTP, a prodrug of MPP^+) (Dauer and Przedborski, 2003). Any substances reducing DA-toxin neurotoxicity may be useful as a new therapeutic agent for the treatment or prevention of PD.
Primary culture of mesencephalic neurons: Rat dopaminergic neurons were cultured as described by Visanji et al., 2008 and Callizot et al., 2019. Briefly, pregnant female rat (Wistar) of 15 days of gestation were killed using a deep anesthesia with CO2 chamber and a cervical dislocation. The midbrains obtained from 15-day-old rat embryos (Janvier, France) were dissected under a microscope. The embryonic midbrains will be removed and placed in ice-cold medium of Leibovitz (L15) containing 2% of Penicillin-Streptomycin (PS) and 1% of bovine serum albumin (BSA). The ventral portion of the mesencephalic flexure, a region of the developing brain rich in dopaminergic neurons, was used for the cell preparations.
The midbrains were dissociated by trypsinisation for 20 min at 37° C. (solution at a final concentration of 0.05% trypsin and 0.02% EDTA). The reaction was stopped by the addition of Dulbecco's modified Eagle's medium (DMEM) containing DNAase I grade II (0.5 mg/mL) and 10% of foetal calf serum (FCS). Cells were then mechanically dissociated by 3 passages through a 10 ml pipette. Cells were then centrifuged at 180×g for 10 min at +4° C. on a layer of BSA (3.5%) in L15 medium. The supernatant was discarded, and the cell pellets re-suspended in a defined culture medium consisting of Neurobasal supplemented with B27 (2%), L-glutamine (2 mM) and 2% of PS solution and 10 ng/mL of Brain-derived neurotrophic factor (BDNF) and 1 ng/ml of Glial-Derived Neurotrophic Factor (GDNF). Viable cells were counted in a Neubauer cytometer using the trypan blue exclusion test. The cells were seeded at a density of 40,000 cells/well in 96 well-plates (pre-coated with poly-L-lysine) and maintained in a humidified incubator at 37° C. in 5% CO2/95% air atmosphere. Half of the medium was changed every 2 days with fresh medium. The wells of first and last lines and columns […] (to avoid any edge effect) and were be filled with sterile water.
• i) Pre-incubation. On day 6 of culture, the test compounds were dissolved in PBS or DMSO and incubated for 1 hour before the MPTP exposure. • ii) Injury. One hour after the application of test compound, MPTP was added to a final concentration of 4 μM, diluted in control medium still in presence of compounds/inhibitors for 48 h. Test compounds were tested on one culture in 96-well plate (n=6 culture wells per condition).
Immunostaining: TH and α-Synuclein. 48 Hours after intoxication, the cell culture supernatant was removed, and the cells were fixed by a solution of 4% paraformaldehyde in PBS, pH=7.3 for 20 min at room temperature. The cells were washed twice in PBS, and then permeabilized. Non-specific sites were blocked with a solution of PBS containing 0.1% of saponin and 1% FCS for 15 min at room temperature. The cultures were incubated with: (a) monoclonal anti-Tyrosine Hydroxylase (TH) antibody produced in mouse at dilution of 1/10000 in PBS containing 1% FCS, 0.1% saponin, for 2 hours at room temperature, and (b) polyclonal anti-alpha synuclein (α-synuclein) antibody produced in rabbit at dilution of 1/200 in PBS containing 1% FCS, 0.1% saponin, for 2 h at room temperature.
Automatic computer analysis. For each condition, 20 pictures (representing the whole well area) were automatically taken using ImageXpress® (Molecular Devices) at 10× magnification (20 pictures, for TH and α-synuclein into TH neurons) using the same acquisition parameters. From images, analyses was directly and automatically performed by MetaXpress® (Molecular Devices). […]

[3] = test system: Human osteosarcoma U2OS cells; experiment: Assay to measure lysosome and autolysosome (acidic vesicle) formation in U2OS cells; assay type: cell-based; conditions: for activation at 0.8 µM: Homo sapiens, concentration of 0.8 μM, read-out: Activity (percentage increase in acidic vesicle formation over the DMSO-treated control); for acidic vesicle formation relative to a DMSO-treated control: concentration of 10 μM, 24 hours
Experimental: Lysosomes play a fundamental role in the autophagic pathway by fusing with autophagosomes and creating ‘autolysosomes’ in order to digest their contents. Stimulation of lysosome and autolysosome formation by a compound is indicative of a stimulation of autophagy. The ability of compounds to stimulate lysosome and autolysosome formation, and thus autophagy, in live cells was assessed via fluorescent microscopy using various fluorescent stains for labelling and tracking acidic organelles (including lysosomes and autolysosomes) such as: LysoView™ 650 (70059 and 70059-T, Biotium), Lyso View™633 (70058 and 70058-T, Biotium) and LysoTracker™ Deep Red (L12492, ThermoFisher Scientific). The cellular phenotype was quantitatively assessed for the induction of acidic vesicle formation and compared to a non-treated control, thus providing a measure of the ability of the compound under investigation to stimulate autophagy.
Representative procedure using LysoView™ 633 dye or LysoTracker™ Deep Red dye: Human osteosarcoma U2OS cells (40,000 cells/well) were seeded in a 24 well glass bottom plate (Sensoplate, Greiner Bio-One) and were incubated overnight in a humidified atmosphere at 37° C. and 5% CO2. Cells were grown in DMEM (Gibco) supplemented with 10% Fetal Bovine Serum (FBS) and 100 units/ml penicillin and 100 μg/ml streptomycin (Invitrogen). After the attachment period, cells were treated with different compounds of interest (at various concentrations in DMSO) or DMSO (non-treated control) in cell culture medium and were incubated for 24 hours. Compound-containing medium was removed and cells were incubated with pre-warmed cell culture medium containing 1× Lyso View™ 633 (70058 and 70058-T, Biotium) or 50 nM LysoTracker™ Deep Red (L12492, ThermoFisher Scientific) for 45 minutes at 37° C. Finally, cell nuclei were stained for 10 minutes using Hoechst 33342 (1 μg/mL) and then the medium was replaced with fresh medium. The 24 well plate was then fitted into a heated stage on the microscope and cells maintained at 37° C. Images were captured using appropriate filter set for Cy5 and DAPI detection with the EVOS M7000 Microscope (ThermoFisher Scientific). The cellular phenotype was visually assessed for the induction of acidic vesicle formation relative to the non-treated control; multiple images were acquired and analysed using ImageJ or Cell Profiler.

| SMILES | Fold change in acidic vesicle formation at compound concentration of 0.8 μM [1] [fold] | Fold change in acidic vesicle formation at compound concentration of 10 μM [1] [fold] | activation at 0.8 µM [3] [%] | also measured |
| --- | --- | --- | --- | --- |
| C[C@H]1CN(C(=O)c2cc(-c3cnn(-c4ccccc4)c3)c[nH]2)CCN1 [Compound 3, (3S)-3-methyl-1-[4-(1-phenyl-1H-pyrazol-4-yl)-1H-pyrrole-2-carbonyl]piperazine] | 1.6 | 3.5 |  |  |
| O=C(O)C1CCCN1C(=O)c1csc(-c2cnn(-c3ccccc3)c2)n1 (stereo not drawn) [Compound 144, 1-[2-(1-phenyl-1H-pyrazol-4-yl)-1,3-thiazole-4-carbonyl]pyrrolidine-2-carboxylic acid] |  |  |  | effects in the in vitro model of PD based on MPP+ injury [2]: positive effects; increase in the number of dopaminergic TH positive neurons ([2]; 100 nM, compared to MPTP injury alone): 25%; decrease in α-syn area per dopaminergic TH positive neuron ([2]; 1 μM, 500 nM and 100 nM, compared to MPP+ injury alone): > 15% |
| CCN1CCC(N(C(=O)c2csc(-c3cnn(-c4ccccc4)c3)n2)C(C)C)CC1 [Compound 218, N-(1-ethylpiperidin-4-yl)-2-(1-phenyl-1H-pyrazol-4-yl)-N-(propan-2-yl)-1,3-thiazole-4-carboxamide] | 1.6 | 4.8 | 30 to 50 |  |
| C[C@H]1CN(C(=O)c2csc(-c3cnn(-c4ccccc4)n3)n2)CCN1 [Compound 238, (3S)-3-methyl-1-[2-(2-phenyl-2H-1,2,3-triazol-4-yl)-1,3-thiazole-4-carbonyl]piperazine] | 2.1 | 2.9 |  |  |
| CCN1C[C@H]2C[C@@H]1CC2NC(=O)c1csc(-c2cnn(-c3ccccc3)c2)n1 (stereo partly drawn) [Compound 244, N-[(1R,4R)-2-ethyl-2-azabicyclo[2.2.1]heptan-5-yl]-2-(1-phenyl-1H-pyrazol-4-yl)-1,3-thiazole-4-carboxamide] |  |  | 10 to 30 |  |
| CCN1C[C@@H]2C[C@H]1CC2N(C)C(=O)c1csc(-c2cnn(-c3ccccc3)c2)n1 (stereo partly drawn) [Compound 245, N-[(1S,4S)-2-ethyl-2-azabicyclo[2.2.1]heptan-5-yl]-N-methyl-2-(1-phenyl-1H-pyrazol-4-yl)-1,3-thiazole-4-carboxamide] |  |  | 10 to 30 |  |
| CCN1C[C@@H]2C[C@H]1CC2NC(=O)c1csc(-c2cnn(-c3ccccc3)c2)n1 (stereo partly drawn) [Compound 246, N-[(1S,4S)-2-ethyl-2-azabicyclo[2.2.1]heptan-5-yl]-2-(1-phenyl-1H-pyrazol-4-yl)-1,3-thiazole-4-carboxamide] |  |  | 10 to 30 |  |
| CC(C)(C)N1CCC(NC(=O)c2csc(-c3cnn(-c4ccccc4)c3)n2)CC1 [Compound 248, N-(1-tert-butylpiperidin-4-yl)-2-(1-phenyl-1H-pyrazol-4-yl)-1,3-thiazole-4-carboxamide] | 2.2 | 1.9 |  |  |
| C[C@H]1CN(C(=O)c2csc(-c3cnn(-c4ncccn4)c3)n2)CCN1 [Compound 249, 2-(4-{4-[(3S)-3-methylpiperazine-1-carbonyl]-1,3-thiazol-2-yl}-1H-pyrazol-1-yl)pyrimidine] |  |  | 10 to 30 |  |
| CCN1CCC(N(C)C(=O)c2csc(-c3cnn(-c4ncccn4)c3)n2)CC1 [Compound 250, N-(1-ethylpiperidin-4-yl)-N-methyl-2-[1-(pyrimidin-2-yl)-1H-pyrazol-4-yl]-1,3-thiazole-4-carboxamide] |  |  | 10 to 30 |  |
| C[C@H]1CN(C(=O)c2cc(-c3cnn(-c4ccccc4)c3)c[nH]2)CCN1 [Compound 255, (3S)-3-methyl-1-[4-(1-phenyl-1H-pyrazol-4-yl)-1H-pyrrole-2-carbonyl]piperazine] |  |  | 50 to 100 |  |
| CCN1CCC(N(C)C(=O)c2cc(-c3cnn(-c4ccccc4)c3)c[nH]2)CC1 [Compound 256, N-(1-ethylpiperidin-4-yl)-N-methyl-4-(1-phenyl-1H-pyrazol-4-yl)-1H-pyrrole-2-carboxamide] | 1.8 | 2.7 | 30 to 50 |  |
| CCN1CCC(NC(=O)c2cc(-c3cnn(-c4ccccc4)c3)c[nH]2)CC1 [Compound 257, N-(1-ethylpiperidin-4-yl)-4-(1-phenyl-1H-pyrazol-4-yl)-1H-pyrrole-2-carboxamide] | 1.9 | 2.6 | 50 to 100 |  |
| CCN1CCC(N(C)C(=O)c2cc(-c3nnc(-c4ccccc4)s3)cs2)CC1 [Compound 258, N-(1-ethylpiperidin-4-yl)-N-methyl-4-(5-phenyl-1,3,4-thiadiazol-2-yl)thiophene-2-carboxamide] |  |  | 10 to 30 | acidic vesicle formation relative to a DMSO-treated control [3]: only a slight increase |
| CCN1CCC(NC(=O)c2cc(-c3nnc(-c4ccccc4)s3)cs2)CC1 [Compound 259, N-(1-ethylpiperidin-4-yl)-4-(5-phenyl-1,3,4-thiadiazol-2-yl)thiophene-2-carboxamide] | 2.3 | 3.6 | 10 to 30 | acidic vesicle formation relative to a DMSO-treated control [3]: only a slight increase |
